The results in this text go back to patent publication US10131664B2 (Celgene Quanticel Research, Inc., priority 2013, dated 2018).

The subject of one test is THP-1 (AML) cells. In words: LSD1 CD11b cellular assay (flow cytometry). It counts as cell-based. Conditions: CD11b expression in THP-1 (AML) cells, flow cytometry, 4 days incubation, read-out: Cellular IC50. How it is done: To analyze LSD1 inhibitor efficacy in cells, a CD11b flow cytometry assay was performed. LSD1 inhibition induces CD11b expression in THP-1 (AML) cells which can be measured by flow cytometry. […] LSD1 test compounds were serially diluted in DMSO. The dilutions were added to each well accordingly to a final concentration of 0.2% DMSO. The cells were incubated at 37° C. in 5% CO2 for 4 days. 250 μL of each well was transferred to a well in a 96 well round bottom plate. The plate was centrifuged at 1200 rpm at 4 degrees Celsius in a Beckman Coulter Alegra 6KR centrifuge for 5 min. The media was removed leaving the cells at the bottom of the wells. The cells were washed in 100 μL cold HBSS (Hank's Balanced Salt Solution) plus 2% BSA (Bovine Serum Albumin) solution and centrifuged at 1200 rpm at 4° C. for 5 min. The wash was removed. […] The cells were centrifuged and washed two times in 100 μl HBSS plus 2% BSA. After the final spin the cells were resuspended in 100 μL HBSS plus 2% BSA containing 1 μg/mL DAPI (4′,6-diamidino-2-phenylindole). The cells were then analyzed by flow cytometry in a BD FACSAria machine. Cells were analyzed for CD11b expression. The percent of CD11b expressing cells for each inhibitor concentration was used to determine an IC50 curve for each compound analyzed.
On the technique in general: In flow cytometry, cells or beads pass a laser one at a time.

Another test has as its target full-length human LSD1 (Homo sapiens (Human), UniProt O60341). Put plainly: In vitro enzyme inhibition assay LSD-1 (TR-FRET). It counts as biochemical. Particulars: TR-FRET, 0.1 nM LSD1, 50 nM H3K4me1-biotin peptide, 2 μM FAD, pH7.3; read-out: LSD1 IC50. On the procedure:
This assay determines the ability of a test compound to inhibit LSD1 demethylase activity.
The enzymatic assay of LSD1 activity is based on Time Resolved-Fluorescence Resonance Energy Transfer (TR-FRET) detection.
The ability of the compounds disclosed herein to inhibit LSD1 activity was quantified and the respective IC50 value was determined. Table 5 provides the IC50 values of various substituted heterocyclic compounds disclosed herein.
In general terms: TR-FRET usually uses a lanthanide donor and a delayed reading to cut background.

Where a name gives a salt, the structure may show the parent alone. Read-outs that look alike come from different tables or passages of the source. Where only a bound is given, the exact number is not on record here.

By IC50 is commonly meant the concentration that gives 50% inhibition.

`Cn1ncc2cc(-c3cnc(N4CCC(N)CC4)nc3-c3ccc(C#N)cc3)ccc21` [Example 116, 4-[2-(4-aminopiperidin-1-yl)-5-(1-methylindazol-5-yl)pyrimidin-4-yl]benzonitrile]: the half-inhibitory concentration (IC50) was < 100 nM in the test with THP-1 (AML) cells (Homo sapiens, 96 h) and < 100 nM on full-length human LSD1.
In the case of `Cc1c2cc(-c3cnc(N4CCC(N)CC4)nc3-c3ccc(C#N)c(F)c3)ccc2nn1C` [Example 92, 4-[2-(4-aminopiperidin-1-yl)-5-(2,3-dimethylindazol-5-yl)pyrimidin-4-yl]-2-fluorobenzonitrile], the half-maximal inhibitory concentration (IC50) in the test on THP-1 (AML) cells (Homo sapiens, 96 h) was < 100 nM; at full-length human LSD1 it was < 100 nM.
For `Cc1ccc(-c2nc3ccn(C[C@H]4CCNC4)c3cc2-c2ccc(C#N)cc2)cc1` [Example 3, 4-[5-(4-methylphenyl)-1-[[(3S)-pyrrolidin-3-yl]methyl]pyrrolo[3,2-b]pyridin-6-yl]benzonitrile], the 50% inhibitory concentration (IC50) with THP-1 (AML) cells (Homo sapiens, 96 h) is < 100 nM; at full-length human LSD1, < 100 nM.
Turning to `Cn1nnc2cc(-c3cnc(N4CCC(N)CC4)nc3-c3ccc(C#N)c(F)c3)cnc21` [Example 139, 4-[2-(4-aminopiperidin-1-yl)-5-(3-methyltriazolo[4,5-b]pyridin-6-yl)pyrimidin-4-yl]-2-fluorobenzonitrile], the IC50 in the test on THP-1 (AML) cells (Homo sapiens, 96 h) was < 100 nM; at full-length human LSD1 it was < 100 nM.
On to `Cn1ccc2nc(-c3cnc(N4CCC(N)CC4)nc3-c3ccc(C#N)cc3)ccc21` [Example 77, 4-[2-(4-aminopiperidin-1-yl)-5-(1-methylpyrrolo[3,2-b]pyridin-5-yl)pyrimidin-4-yl]benzonitrile], for which the IC50 in the test on THP-1 (AML) cells (Homo sapiens, 96 h) was 100 to 1000 nM; at full-length human LSD1, < 100 nM.
For `Cc1ccc(-c2cc(NC[C@H]3CCNC3)nn2-c2ccc(C#N)cc2)cc1` [Example 44, 4-[5-(4-methylphenyl)-3-[[(3S)-pyrrolidin-3-yl]methylamino]pyrazol-1-yl]benzonitrile], the IC50 with THP-1 (AML) cells (Homo sapiens, 96 h) is 100 to 1000 nM; at full-length human LSD1, < 100 nM.
For `Cn1ncc2cc(-c3cnc(N4CCC(N)C(F)C4)nc3-c3ccc(C#N)c(F)c3)ccc21` (stereo not drawn) [Example 111, 4-[2-(4-amino-3-fluoropiperidin-1-yl)-5-(1-methylindazol-5-yl)pyrimidin-4-yl]-2-fluorobenzonitrile], in that order: < 100 nM and < 100 nM.
On the same counts, the results for `COc1nc(N2CCC(N)CC2)nc(-c2ccc(C#N)cc2)c1-c1cnn(CC(F)(F)F)c1` [Example 153, 4-[2-(4-aminopiperidin-1-yl)-6-methoxy-5-[1-(2,2,2-trifluoroethyl)-1H-pyrazol-4-yl]pyrimidin-4-yl]benzonitrile] are < 100 nM and < 100 nM.
In the case of `COc1nc(N2CCC(N)CC2)nc(-c2ccc(C#N)cc2)c1-c1ccc2c(c1)nnn2C` [Example 154, 4-[2-(4-aminopiperidin-1-yl)-6-methoxy-5-(1-methyl-1H-1,2,3-benzotriazol-5-yl)pyrimidin-4-yl]benzonitrile], the IC50 in the test with THP-1 (AML) cells (Homo sapiens, 96 h) is < 100 nM; on full-length human LSD1, < 100 nM.
Consider `COc1nc(N2CCCNCC2)nc(-c2ccc(C#N)c(F)c2)c1-c1ccc2nn(C)cc2c1` [Example 148, 4-[2-(1,4-diazepan-1-yl)-6-methoxy-5-(2-methyl-2H-indazol-5-yl)pyrimidin-4-yl]-2-fluorobenzonitrile], for which the concentration for half-maximal inhibition (IC50) in the test on THP-1 (AML) cells (Homo sapiens, 96 h) was < 100 nM; on full-length human LSD1, < 100 nM.
Take `Cc1ccc(-c2cnc(N3C[C@H]4CNC[C@H]4C3)nc2-c2ccc(C#N)cc2)cc1` [Example 21, 4-{2-[(3aR,6aS)-octahydropyrrolo[3,4-c]pyrrol-2-yl]-5-(4-methylphenyl)pyrimidin-4-yl}benzonitrile]: the IC50 is < 100 nM in the test with THP-1 (AML) cells (Homo sapiens, 96 h) and < 100 nM at full-length human LSD1.
In the case of `Cc1ccc(-c2nc3ccn(C[C@H]4CNCCO4)c3cc2-c2ccc(C#N)cc2)cc1` [Example 10, 4-[5-(4-methylphenyl)-1-[[(2R)-morpholin-2-yl]methyl]pyrrolo[3,2-b]pyridin-6-yl]benzonitrile], the 50% inhibitory concentration (IC50) was 1000 to 10000 nM in the test with THP-1 (AML) cells (Homo sapiens, 96 h) and < 100 nM on full-length human LSD1.
On the same counts, the results for `CNc1nc(N2CCC(N)CC2)nc(-c2ccc(C#N)cc2)c1-c1cnn(CC(F)(F)F)c1` [Example 174, 4-[2-(4-aminopiperidin-1-yl)-6-(methylamino)-5-[1-(2,2,2-trifluoroethyl)-1H-pyrazol-4-yl]pyrimidin-4-yl]-benzonitrile] are < 100 nM and < 100 nM.
Take `N#Cc1ccc(-c2nc(N3CCC(N)CC3)ncc2C#CC2(O)CCCC2)cc1` [Example 70, 4-{2-(4-aminopiperidin-1-yl)-5-[2-(1-hydroxycyclopentyl)ethynyl]pyrimidin-4-yl]benzonitrile]: the IC50 was < 100 nM with THP-1 (AML) cells (Homo sapiens, 96 h) and < 100 nM on full-length human LSD1.
For `COc1nc(N2CCC(N)CC2)nc(-c2ccc(C#N)c(F)c2)c1-c1ccc2cn(C)nc2c1` [Example 150, 4-[2-(4-aminopiperidin-1-yl)-6-methoxy-5-(2-methyl-2H-indazol-6-yl)pyrimidin-4-yl]-2-fluorobenzonitrile], the IC50 in the test on THP-1 (AML) cells (Homo sapiens, 96 h) is < 100 nM; on full-length human LSD1, < 100 nM.
Regarding `Cn1ncc2cc(-c3cnc(N4CCC(N)C(O)C4)nc3-c3ccc(C#N)c(F)c3)ccc21` (stereo not drawn) [Example 104, 4-[2-(4-amino-3-hydroxypiperidin-1-yl)-5-(1-methylindazol-5-yl)pyrimidin-4-yl]-2-fluorobenzonitrile], the IC50 in the test with THP-1 (AML) cells and on full-length human LSD1 was < 100 nM throughout.
For the compound `N#Cc1ccc(-c2nc(N3CCC(N)CC3)ncc2-c2cnn(CC(F)(F)F)c2)cc1F` [Example 80, 4-[2-(4-aminopiperidin-1-yl)-5-[1-(2,2,2-trifluoroethyl)pyrazol-4-yl]pyrimidin-4-yl]-2-fluorobenzonitrile], the IC50 was < 100 nM in the test with THP-1 (AML) cells (Homo sapiens, 96 h) and < 100 nM at full-length human LSD1.
Turning to `COc1nc(N2CCC(N)CC2)nc(-c2ccc(C#N)c(F)c2)c1-c1ccc2c(c1)nnn2C` [Example 151, 4-[2-(4-aminopiperidin-1-yl)-6-methoxy-5-(1-methyl-1H-1,2,3-benzotriazol-5-yl)pyrimidin-4-yl]-2-fluorobenzonitrile], the 50% inhibitory concentration (IC50) with THP-1 (AML) cells (Homo sapiens, 96 h) is < 100 nM; at full-length human LSD1 it was < 100 nM.
For the compound `COc1ccc(-c2nc3ccn(C[C@@H]4CCNC4)c3cc2-c2ccc(C#N)cc2)cc1` [Example 49, 4-{1-[((3R)pyrrolidin-3-yl)methyl]-5-(4-methoxyphenyl)pyrrolo[3,2-b]pyridin-6-yl}benzenecarbonitrile, HCl salt], the IC50 was < 100 nM with THP-1 (AML) cells (Homo sapiens, 96 h) and < 100 nM at full-length human LSD1.
As for `Cc1ccc(-c2nc3ccn(CCCN)c3cc2-c2ccc(C#N)cc2)cc1` [Example 12], the IC50 in the test on THP-1 (AML) cells (Homo sapiens, 96 h) was 100 to 1000 nM; at full-length human LSD1, < 100 nM.
Consider `CN(C)c1ncc(-c2cnc(N3CCC(N)CC3)nc2-c2ccc(C#N)c(F)c2)cn1` [Example 134, 4-[2-(4-aminopiperidin-1-yl)-5-[2-(dimethylamino)pyrimidin-5-yl]pyrimidin-4-yl]-2-fluorobenzonitrile], for which the IC50 in the test with THP-1 (AML) cells (Homo sapiens, 96 h) was < 100 nM; at full-length human LSD1, < 100 nM.
Regarding `Cn1cnc2cc(-c3cnc(N4CCC(N)CC4)nc3-c3ccc(C#N)c(F)c3)cnc21` [Example 136, 4-[2-(4-aminopiperidin-1-yl)-5-(3-methylimidazo[4,5-b]pyridin-6-yl)pyrimidin-4-yl]-2-fluorobenzonitrile], the 50% inhibitory concentration (IC50) with THP-1 (AML) cells (Homo sapiens, 96 h) is < 100 nM; on full-length human LSD1, < 100 nM.
Regarding `Cc1ccc(-c2nc3ccn(C[C@@H]4CCNC4)c3cc2-c2ccc(C#N)cc2)cc1` [Example 1, 4-[5-(4-methylphenyl)-1-[[(3R)-pyrrolidin-3-yl]methyl]pyrrolo[3,2-b]pyridin-6-yl]benzonitrile], the half-inhibitory concentration (IC50) in the test with THP-1 (AML) cells (Homo sapiens, 96 h) is < 100 nM; on full-length human LSD1, < 100 nM.
For the compound `COc1ccc(-c2nc3ccn(C[C@H]4CCNC4)c3cc2-c2ccc(C#N)c(F)c2)cc1` [Example 54], the IC50 in the test on THP-1 (AML) cells (Homo sapiens, 96 h) is < 100 nM; on full-length human LSD1, < 100 nM.
On to `COc1ccc(-c2nc3ccn(C[C@@H]4CCNC4)c3cc2-c2ccc(C#N)c(F)c2)cc1F` [Example 53, 4-{1-[((3R)pyrrolidin-3-yl)methyl]-5-(3-fluoro-4-methoxyphenyl)pyrrolo[3,2-b]pyridin-6-yl}-2-fluorobenzenecarbonitrile HCl salt], for which the IC50 in the test on THP-1 (AML) cells (Homo sapiens, 96 h) was < 100 nM; on full-length human LSD1 it was < 100 nM.
For the compound `N#Cc1ccc(-c2nc(NC[C@H]3CCNC3)ncc2-c2ccc(C(F)(F)F)cc2)cc1` [Example 25, 4-(2-{[(3S)-pyrrolidin-3-ylmethyl]amino}-5-[4-(trifluoromethyl)phenyl]pyrimidin-4-yl)benzonitrile], the 50% inhibitory concentration (IC50) in the test on THP-1 (AML) cells (Homo sapiens, 96 h) is 100 to 1000 nM; at full-length human LSD1, < 100 nM.
For `N#Cc1ccc(-c2nc(N3CCC(N)CC3)ncc2-c2cnc(N3CCCC3)nc2)cc1F` [Example 135, 4-[2-(4-aminopiperidin-1-yl)-5-(2-pyrrolidin-1-ylpyrimidin-5-yl)pyrimidin-4-yl]-2-fluorobenzonitrile], the half-maximal inhibitory concentration (IC50) in the test on THP-1 (AML) cells (Homo sapiens, 96 h) was < 100 nM; on full-length human LSD1, < 100 nM.
